Source: patent US7247634B2, “Rifamycin derivatives effective against drug-resistant microbes” (Cumbre Pharmaceuticals Inc., priority 2004, dated 2007)
Values after ≈ are worked out from the molar mass of the structure shown.

Legend:
Format in all cases: cell-based
[1] = system: Staphylococcus aureus ATCC29213; assay: MIC, microbroth dilution (NCCLS); details: rifS strain, Cation-Adjusted Mueller-Hinton Broth, 37° C., read-out: Antimicrobial activity (MIC)
[2] = system: Staphylococcus aureus ATCC29213 rpoB^D417Y; assay: microbe, parasite or virus in culture; details: ATCC29213, read-out: Antimicrobial activity (MIC)
Summary of the method: (§1)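 Tested organisms were S. aureus ATCC 29213 rpoB mutants (D417Y, H418Y; rifampin-resistant) and double gyrase/topoisomerase IV mutant EN1252a (quinolone-resistant). Growth in cation-adjusted Mueller-Hinton broth at 37 °C; MIC by microbroth dilution per NCCLS guidelines.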

[3] = system: Staphylococcus aureus ATCC29213 rpoB^H418Y; assay: microbe, parasite or virus in culture; details: ATCC29213, read-out: Antimicrobial activity (MIC)
Summary of the method: as §1

[4] = system: Staphylococcus aureus EN1252a gyrA^S84L grlA^S80F; assay: microbe, parasite or virus in culture; details: read-out: Antimicrobial activity (MIC)
Summary of the method: as §1

[5] = system: Staphylococcus epidermidis ATCC12228; assay: MIC, microbroth dilution (NCCLS); details: rifS strain, Cation-Adjusted Mueller-Hinton Broth, 37° C., read-out: Antimicrobial activity (MIC)
[6] = system: Streptococcus pneumoniae ATCC6303; assay: MIC, microbroth dilution (NCCLS); details: rifS strain, THY Broth with 1 mg/mL catalase, 5% CO2, 37° C., read-out: Antimicrobial activity (MIC)
[7] = system: Streptococcus pyogenes ATCC19615; assay: MIC, microbroth dilution (NCCLS); details: rifS strain, THY Broth, 37° C., read-out: Antimicrobial activity (MIC)
[8] = system: Enterococcus faecalis ATCC29212; assay: MIC, microbroth dilution (NCCLS); details: rifS strain, BHI Broth, 37° C., read-out: Antimicrobial activity (MIC)
[9] = system: Haemophilus influenzae ATCC10211; assay: MIC, microbroth dilution (NCCLS); details: rifS strain, BHI Broth with NAD and hematin, 37° C., read-out: Antimicrobial activity (MIC)
[10] = system: Escherichia coli ATCC25922; assay: MIC, microbroth dilution (NCCLS); details: rifS strain, Cation-Adjusted Mueller-Hinton Broth, 37° C., read-out: Antimicrobial activity (MIC)
[11] = system: Mycobacterium smegmatis ATCC700084; assay: MIC, microbroth dilution (NCCLS); details: Mycolicibacterium smegmatis, rifS strain, Middlebrook Broth plus ADC Enrichment, 37° C., read-out: Antimicrobial activity (MIC)

Structure (SMILES) | MIC [1] [µg/mL] | MIC [2] [µg/mL] | MIC [3] [µg/mL] | MIC [4] [µg/mL] | MIC [5] [µg/mL] | MIC [6] [µg/mL] | MIC [7] [µg/mL] | MIC [8] [µg/mL] | MIC [9] [µg/mL] | MIC [10] [µg/mL] | MIC [11] [µg/mL]
CO[C@H]1/C=C/O[C@@]2(C)Oc3c(C)c(O)c4c(c3C2=O)C(=O)C(N2CCN(c3ccc(N5C[C@H](CNC(C)=O)OC5=O)cc3F)CC2)=C(NC(=O)/C(C)=C\C=C\[C@H](C)[C@H](O)[C@@H](C)[C@@H](O)[C@@H](C)[C@H](OC(C)=O)[C@@H]1C)C4=O [Example 23, (S)-3-[4-[4-(5-Acetylaminomethyl-2-oxo-oxazolidin-3-yl)-2-fluoro-phenyl]-piperazin-1-yl]rifamycin S] | 0.004 to 0.5 (≈ 0.00388 to 0.485 µM) | 0.06 to 32 (≈ 0.0582 to 31.1 µM) | 0.06 to 16 (≈ 0.0582 to 15.5 µM) | 0.004 to 0.5 (≈ 0.00388 to 0.485 µM) | 0.008 to 0.063 (≈ 0.00777 to 0.0612 µM) | 0.008 to 0.125 (≈ 0.00777 to 0.121 µM) | 0.008 to 0.063 (≈ 0.00777 to 0.0612 µM) | 2 to 32 (≈ 1.94 to 31.1 µM) | 0.125 to 2 (≈ 0.121 to 1.94 µM) | 0.125 to 8 (≈ 0.121 to 7.77 µM) | 0.5 to 64
CO[C@H]1/C=C/O[C@@]2(C)Oc3c(C)c(O)c4c(c3C2=O)C(=O)C(NCCN2CCN(c3ccc(N5C[C@H](CNC(C)=O)OC5=O)cc3F)CC2)=C(NC(=O)/C(C)=C\C=C\[C@H](C)[C@H](O)[C@@H](C)[C@@H](O)[C@@H](C)[C@H](OC(C)=O)[C@@H]1C)C4=O [Example 24, (S)-3-[4-[4-(5-Acetylaminomethyl-2-oxo-oxazolidin-3-yl)-2-fluoro-phenyl]-piperazin-1-ylethylamino]-rifamycin S] | 0.004 to 0.5 (≈ 0.00373 to 0.466 µM) | 0.06 to 32 (≈ 0.0559 to 29.8 µM) | 0.06 to 16 (≈ 0.0559 to 14.9 µM) | 0.004 to 0.5 (≈ 0.00373 to 0.466 µM) | 0.008 to 0.063 (≈ 0.00745 to 0.0587 µM) | 0.008 to 0.125 (≈ 0.00745 to 0.116 µM) | 0.008 to 0.063 (≈ 0.00745 to 0.0587 µM) | 2 to 32 (≈ 1.86 to 29.8 µM) | 0.125 to 2 (≈ 0.116 to 1.86 µM) | 0.125 to 8 (≈ 0.116 to 7.45 µM) | 0.5 to 64
CO[C@H]1/C=C/O[C@@]2(C)Oc3c(C)c(O)c4c(c3C2=O)C(=O)C(NCC2CN(c3cc5c(cc3F)c(=O)c(C(=O)O)cn5C3CC3)C2)=C(NC(=O)/C(C)=C\C=C\[C@H](C)[C@H](O)[C@@H](C)[C@@H](O)[C@@H](C)[C@H](OC(C)=O)[C@@H]1C)C4=O [Example 25, 3-[1-(3-Carboxy-1-cyclopropyl-6-fluoro-4-oxo-1,4-dihydroquinolin-7-yl)azetidin-3-methylamino)rifamycin S] | 0.004 to 0.5 (≈ 0.0039 to 0.488 µM) | 0.06 to 32 (≈ 0.0585 to 31.2 µM) | 0.06 to 16 (≈ 0.0585 to 15.6 µM) | 0.004 to 0.5 (≈ 0.0039 to 0.488 µM) | 0.008 to 0.063 (≈ 0.0078 to 0.0615 µM) | 0.008 to 0.125 (≈ 0.0078 to 0.122 µM) | 0.008 to 0.063 (≈ 0.0078 to 0.0615 µM) | 2 to 32 (≈ 1.95 to 31.2 µM) | 0.125 to 2 (≈ 0.122 to 1.95 µM) | 0.125 to 8 (≈ 0.122 to 7.8 µM) | 0.5 to 64
COc1c(N2CCN(C3=C4NC(=O)/C(C)=C\C=C\[C@H](C)[C@H](O)[C@@H](C)[C@@H](O)[C@@H](C)[C@H](OC(C)=O)[C@H](C)[C@@H](OC)/C=C/O[C@@]5(C)Oc6c(C)c(O)c(c(c6C5=O)C3=O)C4=O)CC2)c(F)cc2c(=O)c(C(=O)O)cn(C3CC3)c12 [Example 26, 3-[4-(3-Carboxy-1-cyclopropyl-6-fluoro-8-methoxy-4-oxo-1,4-dihydroquinolin-7-yl)-piperazin-1-yl]rifamycin S] | 0.004 to 0.5 (≈ 0.00379 to 0.474 µM) | 0.06 to 32 (≈ 0.0569 to 30.3 µM) | 0.06 to 16 (≈ 0.0569 to 15.2 µM) | 0.004 to 0.5 (≈ 0.00379 to 0.474 µM) | 0.008 to 0.063 (≈ 0.00758 to 0.0597 µM) | 0.008 to 0.125 (≈ 0.00758 to 0.118 µM) | 0.008 to 0.063 (≈ 0.00758 to 0.0597 µM) | 2 to 32 (≈ 1.9 to 30.3 µM) | 0.125 to 2 (≈ 0.118 to 1.9 µM) | 0.125 to 8 (≈ 0.118 to 7.58 µM) | 0.5 to 64
COc1c(N2CCN(C3CCN(C4=C5NC(=O)/C(C)=C\C=C\[C@H](C)[C@H](O)[C@@H](C)[C@@H](O)[C@@H](C)[C@H](OC(C)=O)[C@H](C)[C@@H](OC)/C=C/O[C@@]6(C)Oc7c(C)c(O)c(c(c7C6=O)C4=O)C5=O)CC3)CC2)c(F)cc2c(=O)c(C(=O)O)cn(C3CC3)c12 [Example 31, 3-{4-[1-(3-Carboxy-1-cyclopropyl-6-fluoro-8-methoxy-4-oxo-1,4-dihydroquinolin-7-yl)-piperazin-4-yl]-piperidin-1-yl}rifamycin S] | 0.004 to 0.5 (≈ 0.00351 to 0.439 µM) | 0.06 to 32 (≈ 0.0527 to 28.1 µM) | 0.06 to 16 (≈ 0.0527 to 14.1 µM) | 0.004 to 0.5 (≈ 0.00351 to 0.439 µM) | 0.008 to 0.063 (≈ 0.00703 to 0.0553 µM) | 0.008 to 0.125 (≈ 0.00703 to 0.11 µM) | 0.008 to 0.063 (≈ 0.00703 to 0.0553 µM) | 2 to 32 (≈ 1.76 to 28.1 µM) | 0.125 to 2 (≈ 0.11 to 1.76 µM) | 0.125 to 8 (≈ 0.11 to 7.03 µM) | 0.5 to 64
